In publication PMC6691772, “Novel phthalimide based analogues: design, synthesis, biological evaluation, and molecular docking studies” (Journal of Enzyme Inhibition and Medicinal Chemistry, 2019):
In brackets after ≈: the same amount, converted by molar mass.

Experiments:
[1] = test system: P. aeruginosa RCMB 010043; experiment: Agar well diffusion, inhibition zone; type: cell-based, Pseudomonas aeruginosa; set-up: key to Mean diameter of inhibition zone (Mean ± SEM): –: -: No activity under the screening conditions; conditions: mean of three values; for zone of inhibition at 1000 µg/mL: Pseudomonas aeruginosa, RCMB010043, 1 mg/mL, read-out: Mean diameter of inhibition zone (Mean ± SEM)
[2] = test system: A. fumigatus RCMB 002568; experiment: Minimum inhibitory concentration, modified agar well diffusion; type: cell-based; conditions: Aspergillus fumigatus, RCMB002568, mean of three values, read-out: MIC (Mean ± SEM)
[3] = test system: A. fumigatus RCMB 002568; experiment: Agar well diffusion, inhibition zone; type: cell-based, Aspergillus fumigatus; set-up: key to Mean diameter of inhibition zone (Mean ± SEM): –: -: No activity under the screening conditions; conditions: mean of three values; for Mean diameter of inhibition zone (Mean ± SEM): 1 mg/mL; for zone of inhibition at 1000 µg/mL: Aspergillus fumigatus, RCMB002568, 1 mg/mL, read-out: Mean diameter of inhibition zone (Mean ± SEM)
[4] = test system: E. coli RCMB 010052; experiment: Agar well diffusion, inhibition zone; type: cell-based, Escherichia coli; set-up: key to Mean diameter of inhibition zone (Mean ± SEM): –: -: No activity under the screening conditions; conditions: mean of three values; for zone of inhibition at 1000 µg/mL: Escherichia coli, RCMB010052, 1 mg/mL, read-out: Mean diameter of inhibition zone (Mean ± SEM)
[5] = test system: S. pneumonia RCMB 010010; experiment: Agar well diffusion, inhibition zone; type: cell-based, Streptococcus pneumoniae; set-up: key to Mean diameter of inhibition zone (Mean ± SEM): –: -: No activity under the screening conditions; conditions: mean of three values; for zone of inhibition at 1000 µg/mL: Streptococcus pneumoniae, RCMB010010, 1 mg/mL, read-out: Mean diameter of inhibition zone (Mean ± SEM)
[6] = test system: C. albicans RCMB 005036; experiment: Agar well diffusion, inhibition zone; type: cell-based, Candida albicans; set-up: key: –: -: No activity under the screening conditions; conditions: 1 mg/mL, mean of three values
[7] = test system: B. subtilis RCMB 010067; experiment: Agar well diffusion, inhibition zone; type: cell-based, Bacillus subtilis; set-up: key to Mean diameter of inhibition zone (Mean ± SEM): –: -: No activity under the screening conditions; conditions: mean of three values; for zone of inhibition at 1000 µg/mL: Bacillus subtilis, RCMB010067, 1 mg/mL, read-out: Mean diameter of inhibition zone (Mean ± SEM)
[8] = test system: (THLE-2) normal liver cell line; experiment: Cytotoxic screening on normal liver cells; type: cell-based; conditions: Homo sapiens, mean of three values, read-out: IC50 (Mean ± SEM)
[9] = test system: human liver cancer cell line (HepG-2); experiment: MTT anticancer assay; type: cell-based; conditions: HepG2, HePG-2 cancer liver cell line, mean of three values, read-out: IC50 (Mean ± SEM)
[10] = test system: P. aeruginosa RCMB 010043; experiment: Minimum inhibitory concentration, modified agar well diffusion; type: cell-based; conditions: Pseudomonas aeruginosa, RCMB010043, mean of three values, read-out: MIC (Mean ± SEM)
[11] = test system: E. coli RCMB 010052; experiment: as above; type: cell-based; conditions: Escherichia coli, RCMB010052, mean of three values, read-out: MIC (Mean ± SEM)
[12] = test system: B. subtilis RCMB 010067; experiment: as above; type: cell-based; conditions: Bacillus subtilis, RCMB010067, mean of three values, read-out: MIC (Mean ± SEM)
[13] = test system: S. pneumonia RCMB 010010; experiment: as above; type: cell-based; conditions: Streptococcus pneumoniae, RCMB010010, mean of three values, read-out: MIC (Mean ± SEM)

Row | Structure (SMILES) | MIC [2] [µg/mL] | melting point [°C] | IC50 [9] [µg/mL] | MIC [10] [µg/mL] | MIC [11] [µg/mL] | MIC [12] [µg/mL] | MIC [13] [µg/mL] | zone of inhibition at 1000 µg/mL [1] [mm] | Mean diameter of inhibition zone (Mean ± SEM) [3] | zone of inhibition at 1000 µg/mL [4] [mm] | Mean diameter of inhibition zone (Mean ± SEM) ([5]; 1 mg/mL) | Mean diameter of inhibition zone (Mean ± SEM) [6] | Mean diameter of inhibition zone (Mean ± SEM) ([7]; 1 mg/mL) | zone of inhibition at 1000 µg/mL [5] [mm] | IC50 [8] [µg/mL] | zone of inhibition at 1000 µg/mL [7] [mm] | Mean diameter of inhibition zone (Mean ± SEM) ([1]; 1 mg/mL) | Mean diameter of inhibition zone (Mean ± SEM) ([4]; 1 mg/mL) | zone of inhibition at 1000 µg/mL [3] [mm]
1 | CNC(C)C1CCC(N)C(OC2C(N)CC(N)C(OC3OCC(C)(O)C(NC)C3O)C2O)O1 (stereo not shown) [Gentamycin, reference compound] | 1.95 ± 0.03 (≈ 4.08 µM) |  |  |  |  |  |  | 19.7 ± 0.6 | – | 24.9 ± 1.5 | – | – | – |  |  |  |  |  | 
2 | NC1=Nc2c(N=NN3C(=O)c4ccccc4C3=O)c(O)nn2C1 [Compound 6, 2-((2-Amino-6-hydroxy-3H-imidazo[1,2-b]pyrazol-7-yl)diazenyl)isoindoline-1,3-dione] |  | 180 to 182 | 14.4 ± 0.37 (≈ 46.3 µM) |  |  |  |  | 11.9 ± 1.3 | – | 16.3 ± 0.5 |  | – |  | 20.8 ± 1.5 | 652.46 ± 0.03 (≈ 2100 µM) | 17.8 ± 1.2 |  |  | 
3 | CC1(C)S[C@@H]2[C@H](NC(=O)[C@H](N)c3ccccc3)C(=O)N2[C@H]1C(=O)O [Ampicillin, reference compound] |  |  |  | 3.9 ± 0.15 (≈ 11.2 µM) | 0.98 ± 1.05 (≈ 2.8 µM) |  |  |  | – |  |  | – |  | 23.8 ± 0.71 |  | 26.4 ± 0.5 | – | – | 
4 | N#Cc1nnc2c(N=NN3C(=O)c4ccccc4C3=O)c(O)nn2c1N [Compound 16, 4-Amino-8-[(1,3-dioxo-1,3-dihydro-2H-isoindol-2-yl)diazenyl]-7-hydroxy-pyrazolo[5,1-c][1,2,4]triazine-3-carbonitrile] | 3.9 ± 0.39 (≈ 11.2 µM) | 320 | 7.5 ± 0.84 (≈ 21.5 µM) | 15.6 ± 1.25 (≈ 44.8 µM) | 1.95 ± 1.49 (≈ 5.58 µM) | 7.81 ± 1.16 (≈ 22.4 µM) | 3.9 ± 1.24 (≈ 11.2 µM) | 18.1 ± 0.6 |  | 23.7 ± 0.7 |  | – |  | 22.8 ± 0.7 | 820.58 ± 0.18 (≈ 2350 µM) | 18.8 ± 1.4 |  |  | 22.9 ± 1.3
5 | CCOC(=O)c1nnc2c(N=NN3C(=O)c4ccccc4C3=O)c(O)nn2c1C [Compound 17, Ethyl 8-[(1,3-dioxo-1,3-dihydro-2H-isoindol-2-yl)diazenyl]-7-hydroxy-4-methyl-pyrazolo[5,1-c][1,2,4]triazine-3-carboxylate] | 15.6 ± 1.05 (≈ 39.5 µM) | > 300 | 9.92 ± 1.28 (≈ 25.1 µM) | 62.5 ± 0.71 (≈ 158 µM) | 3.9 ± 1.24 (≈ 9.87 µM) | 3.9 ± 1.38 (≈ 9.87 µM) | 3.9 ± 0.01 (≈ 9.87 µM) | 15.5 ± 1.2 |  | 20.5 ± 1.3 |  | – |  | 21.9 ± 1.2 | 658.13 ± 0.25 (≈ 1660 µM) | 20.2 ± 1.2 |  |  | 16.9 ± 1.2
6 | CN(C)C=NC1=NNC(=O)C1=NNN1C(=O)c2ccccc2C1=O [Compound 10, N'-{4-[(1,3-dioxo-1,3-dihydro-2H-isoindol-2-yl)hydrazono]-5-oxo-4,5-dihydro-1H-pyrazol-3-yl}-N,N-dimethylimidoformamide] |  | 136 to 138 | 16.7 ± 0.26 (≈ 51.1 µM) |  |  |  |  | 12.3 ± 0.4 |  | 22.6 ± 1.5 |  | – |  | 14.2 ± 0.4 | 688.29 ± 0.11 (≈ 2100 µM) | 11.3 ± 0.7 |  |  | 12.1 ± 1.5
7 | CSc1c(C#N)c(N)nc2c(N=NN3C(=O)c4ccccc4C3=O)c(O)nn12 [Compound 9, 5-Amino-3-((1,3-dioxo-1,3-dihydro-2H-isoindol-2-yl)diazenyl)-2-hydroxy-7-(methylthio)pyrazolo[1,5-a]pyrimidine-6-carbonitrile] | 1.95 ± 0.34 (≈ 4.94 µM) | 210 to 211 | 5.6 ± 1.57 (≈ 14.2 µM) | 15.6 ± 0.26 (≈ 39.6 µM) | 0.49 ± 1.08 (≈ 1.24 µM) | 1.95 ± 1.3 (≈ 4.94 µM) | 3.9 ± 0.2 (≈ 9.89 µM) | 17.2 ± 1.3 |  | 24 ± 1.3 |  | – |  | 22.2 ± 0.6 | 754.31 ± 0.2 (≈ 1910 µM) | 23.2 ± 1.5 |  |  | 16.6 ± 1.3

Now from value to compound, other results behind:

Row | MIC [2] [µg/mL] | melting point [°C] | IC50 [9] [µg/mL] | MIC [10] [µg/mL] | MIC [11] [µg/mL] | MIC [12] [µg/mL] | MIC [13] [µg/mL] | Structure (SMILES) | zone of inhibition at 1000 µg/mL [1] [mm] | Mean diameter of inhibition zone (Mean ± SEM) [3] | zone of inhibition at 1000 µg/mL [4] [mm] | Mean diameter of inhibition zone (Mean ± SEM) ([5]; 1 mg/mL) | Mean diameter of inhibition zone (Mean ± SEM) [6] | Mean diameter of inhibition zone (Mean ± SEM) ([7]; 1 mg/mL) | zone of inhibition at 1000 µg/mL [5] [mm] | IC50 [8] [µg/mL] | zone of inhibition at 1000 µg/mL [7] [mm] | Mean diameter of inhibition zone (Mean ± SEM) ([1]; 1 mg/mL) | Mean diameter of inhibition zone (Mean ± SEM) ([4]; 1 mg/mL) | zone of inhibition at 1000 µg/mL [3] [mm]
8 |  | 128 to 129 | 12.6 ± 0.13 (≈ 44 µM) |  |  |  |  | CCOC(=O)C(C#N)=NNN1C(=O)c2ccccc2C1=O [Compound 3, Ethyl 2-cyano-2-(2-(1,3-dioxoisoindolin-2-yl)hydrazono)acetate] | 15.3 ± 0.7 | – | 17.1 ± 0.5 |  | – |  | 18.3 ± 0.7 | 716.37 ± 0.1 (≈ 2500 µM) | 17.3 ± 0.6 |  |  | 
9 |  |  | 4.63 ± 1.07 (≈ 5.71 µM) |  |  |  |  | CC[C@]1(O)C[C@@H]2CN(CCc3c([nH]c4ccccc34)[C@@](C(=O)OC)(c3cc4c(cc3OC)N(C)[C@H]3[C@@](O)(C(=O)OC)[C@H](OC(C)=O)[C@]5(CC)C=CCN6CC[C@]43[C@@H]65)C2)C1 [Vinblastine, reference compound] |  |  |  |  |  |  |  | 2146.1 ± 0.1 (≈ 2650 µM) |  |  |  | 
10 | 3.9 ± 1 (≈ 11.2 µM) | 302 | 9.11 ± 1.02 (≈ 26.2 µM) | 62.5 ± 1.06 (≈ 179 µM) | 3.9 ± 0.03 (≈ 11.2 µM) | 0.98 ± 1.18 (≈ 2.81 µM) | 7.81 ± 1.01 (≈ 22.4 µM) | N#Cc1cnc2c(N=NN3C(=O)c4ccccc4C3=O)c(O)nn2c1N [Compound 12, 7-Amino-3-[(1,3-dioxo-1,3-dihydro-2H-isoindol-2-yl)diazenyl]-2-hydroxy-pyrazolo[1,5-a]pyrimidine-6-carbonitrile] | 15.8 ± 1.5 |  | 21.8 ± 1.3 |  | – |  | 18.6 ± 1.2 | 793.56 ± 0.31 (≈ 2280 µM) | 24.3 ± 0.6 |  |  | 20.7 ± 1.2
11 |  | 196 to 198 | 23.6 ± 1.32 (≈ 63.4 µM) |  |  |  |  | O=C1c2ccccc2C(=O)N1N=Nc1c(O)nn2cc(-c3ccccc3)[nH]c12 [Compound 7, 2-((6-Hydroxy-2-phenyl-1H-imidazo[1,2-b]pyrazol-7-yl)diazenyl)isoindoline-1,3-dione] | 16.9 ± 1.2 | – | 11.9 ± 1.3 |  | – |  | 12.7 ± 0.6 | 662.58 ± 0.17 (≈ 1780 µM) | 21.5 ± 1.5 |  |  | 
